From US4698352A, “4-oxo-1,4-dihydronicotinic acid derivatives, salts thereof, and antibacterial agents containing the same” (Toyama Chemical Co., Ltd., priority 1982, dated 1987) come the findings set out here.

What all share (experiment): Antibacterial activity (MIC), agar dilution
Type in all cases: cell-based
In general terms: In agar dilution, organisms are placed on agar that contains the substance at set levels.

One assay relates to Pro. vulgaris GN76**. The settings on record: Proteus vulgaris. The text has this:
(§1) The amount of bacteria inoculated was 10^4 cells per plate (10^6 cells per ml).
(§2) ** Cephalospolinase-producing bacteria

The subject of a further assay is Ps. aeruginosa GN918**. Particulars: Pseudomonas aeruginosa, Ps. aeruginosa GN918, cephalospolinase-producing, 10^6 cells per ml.
Text: as §1, §2

The subject of a further assay is E. coli GN5482**. Particulars: Escherichia coli, 20 h; E. coli GN5482, cephalospolinase-producing; 10^6 cells per ml; read-out: MIC.
Text: as §1, §2

In the next assay the test system is E. coli NIHJ JC-2. The settings on record: Escherichia coli, NIHJJC2, 20 h.
Text: as §1

The test system of a further assay is Pro. mirabilis T-111. The settings on record: Proteus mirabilis, 37° C.
Text: as §1

Another assay concerns Ent. cloacae IID977. Particulars: Enterobacter cloacae, IID977, 20 h, Ent. cloacae IID977; 10^6 cells per ml; 37° C., 20 hours; read-out: MIC.
Text: as §1

A further assay relates to Aci. antitratus A-6. Particulars: 20 h.
Text: as §1

In a further assay the test system is Ps. aeruginosa S-68. Particulars: Pseudomonas aeruginosa.
Text: as §1

A further assay deals with Pro. vulgaris GN3027. The settings on record: Proteus vulgaris, GN3027, 20 h, Pro. vulgaris GN3027; 10^6 cells per ml; 37° C., 20 hours; read-out: MIC.
Text: as §1

In a further assay the test system is E. coli TK-111. The settings on record: Escherichia coli, TK111, 20 h, E. coli TK-111; 10^6 cells per ml; 37° C., 20 hours; read-out: MIC.
Text: as §1

The next assay relates to Kl. pneumoniae Y-41. The settings on record: Klebsiella pneumoniae, Y41, 10^6 cells per ml, 37° C., 20 hours, read-out: MIC.
Text: as §1

The next assay has as its system Pro. morganii T-216. Particulars: Morganella morganii, T216, 10^6 cells per ml, 37° C., 20 hours, read-out: MIC.
Text: as §1

The test system of a further assay is Kl. pneumoniae Y-50. The settings on record: Klebsiella pneumoniae, Y50, 20 h, 10^6 cells per ml, 37° C., read-out: MIC.
Text: as §1

A further assay relates to Ps. aeruginosa IFO3445. The settings on record: Pseudomonas aeruginosa.
Text: as §1

The subject of a further assay is St. aureus F-137*. Particulars: Staphylococcus aureus, 20 h.
Text: as §1
(§3) * Penicillinase-producing bacteria

For the next assay, the system named is Kl. pneumoniae Y-4*. The settings on record: Klebsiella pneumoniae, 20 h, Kl. pneumoniae Y-4, penicillinase-producing; 10^6 cells per ml; read-out: MIC.
Text: as §1, §3

The next assay concerns Ps. aeruginosa GN3379*. Particulars: Pseudomonas aeruginosa, Ps. aeruginosa GN3379, penicillinase-producing, 10^6 cells per ml.
Text: as §1, §3

The subject of a further assay is E. coli TK-3*. Particulars: Escherichia coli, 20 h, E. coli TK-3, penicillinase-producing; 10^6 cells per ml; read-out: MIC.
Text: as §1, §3

The next assay concerns St. aureus FDA209P. The settings on record: Staphylococcus aureus, FDA209P, 20 h.
Text: as §1

Where [1] appears, read: 20 h, Pro. vulgaris GN76, cephalospolinase-producing, 10^6 cells per ml, read-out: MIC.
[2] abbreviates: E. coli NIHJ JC-2, 10^6 cells per ml, 37° C., 20 hours, read-out: MIC.
Where [3] appears, read: T111, 10^6 cells per ml, 20 hours, read-out: MIC.
The mark [4] stands for this setting: Aci. antitratus A-6, 10^6 cells per ml, 37° C., 20 hours, read-out: MIC.
Where [5] appears, read: S68, Ps. aeruginosa S-68, 10^6 cells per ml, 37° C., 20 hours, read-out: MIC.
Where [6] appears, read: Ps. aeruginosa IFO3445, 10^6 cells per ml, 37° C., 20 hours, read-out: MIC.
Where [7] appears, read: St. aureus F-137, penicillinase-producing, 10^6 cells per ml, read-out: MIC.
Where [8] appears, read: St. aureus FDA209P, 10^6 cells per ml, 37° C., 20 hours, read-out: MIC.

Converted amounts (≈) assume the structure as drawn. Where two headings read alike, the source gives them in different places.

What is called MIC is the lowest concentration that inhibits growth of the organism. As for `O=C(O)c1cn(-c2ccc(O)cc2)c(-c2ccc3sccc3c2)cc1=O`, the MIC was 0.2 µg/mL (≈ 0.55 µM) in the assay with Pro. vulgaris GN76** (setting [1]); 0.39 µg/mL (≈ 1.07 µM) in the assay with Ps. aeruginosa GN918** (20 h, read-out: MIC); at most 0.05 µg/mL in the assay with E. coli GN5482**; 0.2 µg/mL (≈ 0.55 µM) in the assay on E. coli NIHJ JC-2 (setting [2]); 0.78 µg/mL (≈ 2.15 µM) with Pro. mirabilis T-111 (setting [3]); 0.78 µg/mL (≈ 2.15 µM) in the assay on Ent. cloacae IID977. Moreover, the minimal inhibitory concentration (MIC) was 0.1 µg/mL (≈ 0.275 µM) in the assay on Aci. antitratus A-6 (setting [4]); 3.13 µg/mL (≈ 8.61 µM) with Ps. aeruginosa S-68 (setting [5]); at most 0.05 µg/mL in the assay with Pro. vulgaris GN3027; at most 0.05 µg/mL with E. coli TK-111; 0.78 µg/mL (≈ 2.15 µM) in the assay with Kl. pneumoniae Y-41; 0.39 µg/mL (≈ 1.07 µM) with Pro. morganii T-216. The MIC in the assay on Kl. pneumoniae Y-50 stood at 0.2 µg/mL (≈ 0.55 µM); in the assay with Ps. aeruginosa IFO3445 (setting [6]), 1.56 µg/mL (≈ 4.29 µM); in the assay on St. aureus F-137* (setting [7]) it was 0.39 µg/mL (≈ 1.07 µM); with Kl. pneumoniae Y-4*, 0.78 µg/mL (≈ 2.15 µM); with Ps. aeruginosa GN3379* (20 h, read-out: MIC), 1.56 µg/mL (≈ 4.29 µM); with E. coli TK-3*, 0.39 µg/mL (≈ 1.07 µM).

Regarding `CN(C)c1ccc(-c2cc(=O)c(C(=O)O)cn2-c2ccc(O)cc2F)cc1`, the MIC is 0.2 µg/mL (≈ 0.543 µM) with Pro. vulgaris GN76** (setting [1]); at most 0.05 µg/mL in the assay with E. coli GN5482**; 0.1 µg/mL (≈ 0.271 µM) in the assay on E. coli NIHJ JC-2 (setting [2]); 0.78 µg/mL (≈ 2.12 µM) in the assay with Pro. mirabilis T-111 (setting [3]); 0.2 µg/mL (≈ 0.543 µM) with Ent. cloacae IID977; 0.1 µg/mL (≈ 0.271 µM) in the assay on Aci. antitratus A-6 (setting [4]). Further, the MIC is 0.78 µg/mL (≈ 2.12 µM) in the assay with Ps. aeruginosa S-68 (setting [5]); at most 0.05 µg/mL in the assay on Pro. vulgaris GN3027; at most 0.05 µg/mL with E. coli TK-111; 3.13 µg/mL (≈ 8.5 µM) in the assay with Kl. pneumoniae Y-41; 0.78 µg/mL (≈ 2.12 µM) in the assay with Pro. morganii T-216; 0.2 µg/mL (≈ 0.543 µM) in the assay with Kl. pneumoniae Y-50. For the same compound, the MIC is 1.56 µg/mL (≈ 4.23 µM) in the assay on Ps. aeruginosa IFO3445 (setting [6]); at most 0.05 µg/mL with St. aureus FDA209P (setting [8]); at most 0.05 µg/mL with St. aureus F-137* (setting [7]); 0.78 µg/mL (≈ 2.12 µM) in the assay on Kl. pneumoniae Y-4*; 3.13 µg/mL (≈ 8.5 µM) with Ps. aeruginosa GN3379* (GN3379, 20 h); 0.2 µg/mL (≈ 0.543 µM) in the assay with E. coli TK-3*.

Regarding `O=C(O)c1cn(-c2ccc(O)cc2)c(-c2ccc(-c3ccc(O)cc3)s2)cc1=O`, the MIC with Pro. vulgaris GN76** (setting [1]) is 0.78 µg/mL (≈ 1.92 µM); in the assay on E. coli GN5482** it was at most 0.05 µg/mL; with E. coli NIHJ JC-2 (setting [2]), 0.39 µg/mL (≈ 0.962 µM); against Pro. mirabilis T-111 (T111, 20 h, 10^6 cells per ml), 6.25 µg/mL (≈ 15.4 µM); in the assay on Ent. cloacae IID977, 1.56 µg/mL (≈ 3.85 µM); in the assay on Aci. antitratus A-6 (setting [4]), 0.78 µg/mL (≈ 1.92 µM). The MIC against Ps. aeruginosa S-68 (S68, 20 h) is 6.25 µg/mL (≈ 15.4 µM); in the assay with Pro. vulgaris GN3027 it was 0.39 µg/mL (≈ 0.962 µM); in the assay on E. coli TK-111 it was at most 0.05 µg/mL; with Kl. pneumoniae Y-41, 3.13 µg/mL (≈ 7.72 µM); in the assay with Pro. morganii T-216 it was 1.56 µg/mL (≈ 3.85 µM); in the assay on Kl. pneumoniae Y-50, 0.78 µg/mL (≈ 1.92 µM). For the same compound, the MIC against Ps. aeruginosa IFO3445 (IFO3445, 20 h) came to 3.13 µg/mL (≈ 7.72 µM); in the assay on St. aureus FDA209P (setting [8]), 0.1 µg/mL (≈ 0.247 µM); in the assay on St. aureus F-137* (setting [7]) it was 0.2 µg/mL (≈ 0.493 µM); with Kl. pneumoniae Y-4* it was 6.25 µg/mL (≈ 15.4 µM); in the assay on Ps. aeruginosa GN3379* (GN3379, 20 h), 3.13 µg/mL (≈ 7.72 µM); in the assay on E. coli TK-3*, 0.78 µg/mL (≈ 1.92 µM).

Take `Nc1ccc(-c2cc(=O)c(C(=O)O)cn2-c2ccc(F)cc2)cc1`: the MIC in the assay with Pro. vulgaris GN76** (setting [1]) is 0.78 µg/mL (≈ 2.41 µM); against Ps. aeruginosa GN918** (GN918, 20 h), 3.13 µg/mL (≈ 9.65 µM); with E. coli GN5482** it was 0.2 µg/mL (≈ 0.617 µM); in the assay with E. coli NIHJ JC-2 (setting [2]), 0.78 µg/mL (≈ 2.41 µM); with Pro. mirabilis T-111 (T111, 20 h, 10^6 cells per ml) it was 6.25 µg/mL (≈ 19.3 µM); in the assay on Ent. cloacae IID977 it was 1.56 µg/mL (≈ 4.81 µM). Further, the minimum inhibitory concentration (MIC) against Aci. antitratus A-6 amounted to 3.13 µg/mL (≈ 9.65 µM); in the assay on Ps. aeruginosa S-68 (setting [5]) it was 12.5 µg/mL (≈ 38.5 µM); in the assay on Pro. vulgaris GN3027 it was 0.2 µg/mL (≈ 0.617 µM); in the assay on E. coli TK-111, 0.39 µg/mL (≈ 1.2 µM); in the assay with Kl. pneumoniae Y-41, 3.13 µg/mL (≈ 9.65 µM); in the assay on Pro. morganii T-216 it was 1.56 µg/mL (≈ 4.81 µM). In addition, the MIC in the assay on Kl. pneumoniae Y-50 was 0.39 µg/mL (≈ 1.2 µM); in the assay on Ps. aeruginosa IFO3445 (setting [6]), 6.15 µg/mL (≈ 19 µM); with St. aureus FDA209P, 3.13 µg/mL (≈ 9.65 µM); against St. aureus F-137* it was 3.13 µg/mL (≈ 9.65 µM); in the assay with Kl. pneumoniae Y-4*, 6.25 µg/mL (≈ 19.3 µM); with Ps. aeruginosa GN3379* (20 h, read-out: MIC) it was 25 µg/mL (≈ 77.1 µM). Moreover, the MIC in the assay on E. coli TK-3* was determined as 0.78 µg/mL (≈ 2.41 µM).

Consider `O=C(O)c1cn(-c2ccc(F)cc2)c(-c2ccc(Cl)cc2)cc1=O`, for which the MIC in the assay with Pro. vulgaris GN76** (GN76, 20 h) came out at 3.13 µg/mL (≈ 9.11 µM); with Ps. aeruginosa GN918** (20 h, read-out: MIC) it was 100 µg/mL (≈ 291 µM); with E. coli GN5482**, 0.39 µg/mL (≈ 1.13 µM); against E. coli NIHJ JC-2 it was 3.13 µg/mL (≈ 9.11 µM); in the assay with Pro. mirabilis T-111 (T111, 20 h, 10^6 cells per ml), 12.5 µg/mL (≈ 36.4 µM); in the assay on Ent. cloacae IID977 it was 6.25 µg/mL (≈ 18.2 µM). Also, the MIC against Aci. antitratus A-6 was determined as 3.13 µg/mL (≈ 9.11 µM); with Ps. aeruginosa S-68 (setting [5]), 50 µg/mL (≈ 145 µM); with Pro. vulgaris GN3027, 0.39 µg/mL (≈ 1.13 µM); in the assay with E. coli TK-111 it was 1.56 µg/mL (≈ 4.54 µM); in the assay on Kl. pneumoniae Y-41, 12.5 µg/mL (≈ 36.4 µM); with Pro. morganii T-216, 6.25 µg/mL (≈ 18.2 µM). In addition, the MIC with Kl. pneumoniae Y-50 is 3.13 µg/mL (≈ 9.11 µM); in the assay on Ps. aeruginosa IFO3445 (setting [6]), above 100 µg/mL; with St. aureus FDA209P (setting [8]) it was 6.25 µg/mL (≈ 18.2 µM); in the assay on St. aureus F-137* (setting [7]), 6.25 µg/mL (≈ 18.2 µM); with Kl. pneumoniae Y-4* it was 25 µg/mL (≈ 72.7 µM); in the assay on Ps. aeruginosa GN3379* (20 h, read-out: MIC), 50 µg/mL (≈ 145 µM). Besides, the MIC in the assay with E. coli TK-3* was 6.25 µg/mL (≈ 18.2 µM).
